Patent US11078202B2, “β-lactamase inhibitor and use thereof” (priority 2018, dated 2021)
Structures can show the parent of a compound that is named as a salt.

Key:
Type in all cases: cell-based
[1] = system: Klebsiella pneumoniae XNWB 0006; experiment: MIC assay of test compounds combined with ceftazidime (8 μg/mL); conditions: ceftazidime 8 μg/mL fixed
Outline: (§1)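 Strains grown on TSA, colonies suspended to OD600 0.1-0.15, diluted 300-fold in CAMHB; compound dilutions combined with fixed ceftazidime or imipenem at concentrations given in assay names. Incubated 16-20 h at 35±2 °C; MIC read per CLSI guidelines, with growth and sterility controls.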

[2] = system: Klebsiella pneumoniae XNWB 0002; experiment: as above; conditions: ceftazidime 8 μg/mL fixed
Outline: as §1

[3] = system: Klebsiella pneumoniae XNWB 0004; experiment: as above; conditions: ceftazidime 8 μg/mL fixed
Outline: as §1

[4] = system: Klebsiella pneumoniae XNWB 0003; experiment: as above; conditions: ceftazidime 8 μg/mL fixed
Outline: as §1

[5] = system: Acinetobacter baumannii XNWB 0007; experiment: as above; conditions: ceftazidime 8 μg/mL fixed
Outline: as §1

[6] = system: Pseudomonas aeruginosa XNWB 0008; experiment: as above; conditions: ceftazidime 8 μg/mL fixed
Outline: as §1

[7] = system: Klebsiella pneumoniae XNWB 0001; experiment: as above; conditions: ceftazidime 8 μg/mL fixed
Outline: as §1

[8] = system: Klebsiella pneumoniae XNWB 0005; experiment: as above; conditions: ceftazidime 8 μg/mL fixed
Outline: as §1

[9] = system: Klebsiella pneumoniae XNWB 0006; experiment: MIC assay of test compounds combined with imipenem (4 μg/mL); conditions: imipenem 4 μg/mL fixed
Outline: as §1

[10] = system: Klebsiella pneumoniae XNWB 0002; experiment: as above; conditions: imipenem 4 μg/mL fixed
Outline: as §1

[11] = system: Klebsiella pneumoniae XNWB 0004; experiment: as above; conditions: imipenem 4 μg/mL fixed
Outline: as §1

[12] = system: Klebsiella pneumoniae XNWB 0003; experiment: as above; conditions: imipenem 4 μg/mL fixed
Outline: as §1

[13] = system: Acinetobacter baumannii XNWB 0007; experiment: as above; conditions: imipenem 4 μg/mL fixed
Outline: as §1

[14] = system: Pseudomonas aeruginosa XNWB 0008; experiment: as above; conditions: imipenem 4 μg/mL fixed
Outline: as §1

[15] = system: Klebsiella pneumoniae XNWB 0001; experiment: as above; conditions: imipenem 4 μg/mL fixed
Outline: as §1

[16] = system: Klebsiella pneumoniae XNWB 0005; experiment: as above; conditions: imipenem 4 μg/mL fixed
Outline: as §1

## NCCNC[C@H](O)c1nnc([C@@H]2CC3(CC3)[C@@H]3CN2C(=O)N3OS(=O)(=O)O)o1 [Example 31, (1R,4S)-4-(5-((S)-2-((2-aminoethyl)amino)-1-hydroxyethyl)-1,3,4-oxadiazol-2-yl)-6-oxo-5,7-diazaspiro[bicyclo[3.2.1]octane-2,1′-cyclopropan]-7-yl sulfate]
[1]
  The minimum concentration of test compounds combined with ceftazidime (8 μg/mL) for bacteriostasis: A (A: <8 μg/mL)
[2]
  The minimum concentration of test compounds combined with ceftazidime (8 μg/mL) for bacteriostasis: A (A: <8 μg/mL)
[3]
  The minimum concentration of test compounds combined with ceftazidime (8 μg/mL) for bacteriostasis: B (B: 8-16 μg/mL)
[4]
  The minimum concentration of test compounds combined with ceftazidime (8 μg/mL) for bacteriostasis: A (A: <8 μg/mL)
[5]
  The minimum concentration of test compounds combined with ceftazidime (8 μg/mL) for bacteriostasis: C (C: 16-128 μg/mL)
[6]
  The minimum concentration of test compounds combined with ceftazidime (8 μg/mL) for bacteriostasis: C (C: 16-128 μg/mL)
[7]
  The minimum concentration of test compounds combined with ceftazidime (8 μg/mL) for bacteriostasis: A (A: <8 μg/mL)
[8]
  The minimum concentration of test compounds combined with ceftazidime (8 μg/mL) for bacteriostasis: A (A: <8 μg/mL)
[9]
  The minimum concentration of test compounds combined with imipenem (4 μg/mL) for bacteriostasis: A (A: <8 μg/mL)
[10]
  The minimum concentration of test compounds combined with imipenem (4 μg/mL) for bacteriostasis: A (A: <8 μg/mL)
[11]
  The minimum concentration of test compounds combined with imipenem (4 μg/mL) for bacteriostasis: A (A: <8 μg/mL)
[12]
  The minimum concentration of test compounds combined with imipenem (4 μg/mL) for bacteriostasis: A (A: <8 μg/mL)
[13]
  The minimum concentration of test compounds combined with imipenem (4 μg/mL) for bacteriostasis: B (B: 8-16 μg/mL)
[14]
  The minimum concentration of test compounds combined with imipenem (4 μg/mL) for bacteriostasis: B (B: 8-16 μg/mL)
[15]
  The minimum concentration of test compounds combined with imipenem (4 μg/mL) for bacteriostasis: A (A: <8 μg/mL)
[16]
  The minimum concentration of test compounds combined with imipenem (4 μg/mL) for bacteriostasis: A (A: <8 μg/mL)

## O=C1N2C[C@H](N1OS(=O)(=O)O)C1(CC1)C[C@H]2c1nnco1 [Example 1, (1R,4S)-4-(1,3,4-oxadiazol-2-yl)-6-oxo-5,7-diazaspiro[bicyclo[3.2.1]octane-2,1′-cyclopropan]-7-yl sulfate]
[1]
  The minimum concentration of test compounds combined with ceftazidime (8 μg/mL) for bacteriostasis: A (A: <8 μg/mL)
[2]
  The minimum concentration of test compounds combined with ceftazidime (8 μg/mL) for bacteriostasis: A (A: <8 μg/mL)
[3]
  The minimum concentration of test compounds combined with ceftazidime (8 μg/mL) for bacteriostasis: B (B: 8-16 μg/mL)
[4]
  The minimum concentration of test compounds combined with ceftazidime (8 μg/mL) for bacteriostasis: A (A: <8 μg/mL)
[5]
  The minimum concentration of test compounds combined with ceftazidime (8 μg/mL) for bacteriostasis: C (C: 16-128 μg/mL)
[6]
  The minimum concentration of test compounds combined with ceftazidime (8 μg/mL) for bacteriostasis: C (C: 16-128 μg/mL)
[7]
  The minimum concentration of test compounds combined with ceftazidime (8 μg/mL) for bacteriostasis: A (A: <8 μg/mL)
[8]
  The minimum concentration of test compounds combined with ceftazidime (8 μg/mL) for bacteriostasis: A (A: <8 μg/mL)
[9]
  The minimum concentration of test compounds combined with imipenem (4 μg/mL) for bacteriostasis: A (A: <8 μg/mL)
[10]
  The minimum concentration of test compounds combined with imipenem (4 μg/mL) for bacteriostasis: A (A: <8 μg/mL)
[11]
  The minimum concentration of test compounds combined with imipenem (4 μg/mL) for bacteriostasis: A (A: <8 μg/mL)
[12]
  The minimum concentration of test compounds combined with imipenem (4 μg/mL) for bacteriostasis: A (A: <8 μg/mL)
[13]
  The minimum concentration of test compounds combined with imipenem (4 μg/mL) for bacteriostasis: C (C: 16-128 μg/mL)
[14]
  The minimum concentration of test compounds combined with imipenem (4 μg/mL) for bacteriostasis: C (C: 16-128 μg/mL)
[15]
  The minimum concentration of test compounds combined with imipenem (4 μg/mL) for bacteriostasis: A (A: <8 μg/mL)
[16]
  The minimum concentration of test compounds combined with imipenem (4 μg/mL) for bacteriostasis: A (A: <8 μg/mL)

## N[C@H]1C[C@H](Cc2nnc([C@@H]3CC4(CC4)[C@@H]4CN3C(=O)N4OS(=O)(=O)O)o2)C1 [Example 19, (1R,4S)-4-(5-(((1R,3R)-3-aminocyclobutyl)methyl)-1,3,4-oxadiazol-2-yl)-6-oxo-5,7-diazaspiro[bicyclo[3.2.1]octane-2,1′-cyclopropan]-7-yl sulfate]
[1]
  The minimum concentration of test compounds combined with ceftazidime (8 μg/mL) for bacteriostasis: A (A: <8 μg/mL)
[2]
  The minimum concentration of test compounds combined with ceftazidime (8 μg/mL) for bacteriostasis: A (A: <8 μg/mL)
[3]
  The minimum concentration of test compounds combined with ceftazidime (8 μg/mL) for bacteriostasis: A (A: <8 μg/mL)
[4]
  The minimum concentration of test compounds combined with ceftazidime (8 μg/mL) for bacteriostasis: A (A: <8 μg/mL)
[5]
  The minimum concentration of test compounds combined with ceftazidime (8 μg/mL) for bacteriostasis: C (C: 16-128 μg/mL)
[6]
  The minimum concentration of test compounds combined with ceftazidime (8 μg/mL) for bacteriostasis: B (B: 8-16 μg/mL)
[7]
  The minimum concentration of test compounds combined with ceftazidime (8 μg/mL) for bacteriostasis: A (A: <8 μg/mL)
[8]
  The minimum concentration of test compounds combined with ceftazidime (8 μg/mL) for bacteriostasis: A (A: <8 μg/mL)
[9]
  The minimum concentration of test compounds combined with imipenem (4 μg/mL) for bacteriostasis: A (A: <8 μg/mL)
[10]
  The minimum concentration of test compounds combined with imipenem (4 μg/mL) for bacteriostasis: A (A: <8 μg/mL)
[11]
  The minimum concentration of test compounds combined with imipenem (4 μg/mL) for bacteriostasis: A (A: <8 μg/mL)
[12]
  The minimum concentration of test compounds combined with imipenem (4 μg/mL) for bacteriostasis: A (A: <8 μg/mL)
[13]
  The minimum concentration of test compounds combined with imipenem (4 μg/mL) for bacteriostasis: B (B: 8-16 μg/mL)
[14]
  The minimum concentration of test compounds combined with imipenem (4 μg/mL) for bacteriostasis: B (B: 8-16 μg/mL)
[15]
  The minimum concentration of test compounds combined with imipenem (4 μg/mL) for bacteriostasis: A (A: <8 μg/mL)
[16]
  The minimum concentration of test compounds combined with imipenem (4 μg/mL) for bacteriostasis: A (A: <8 μg/mL)

## O=C(NC1CCNCC1)[C@@H]1CC[C@@H]2CN1C(=O)N2OS(=O)(=O)O [Relebactam, reference compound]
[1]
  The minimum concentration of test compounds combined with ceftazidime (8 μg/mL) for bacteriostasis: A (A: <8 μg/mL)
[2]
  The minimum concentration of test compounds combined with ceftazidime (8 μg/mL) for bacteriostasis: A (A: <8 μg/mL)
[3]
  The minimum concentration of test compounds combined with ceftazidime (8 μg/mL) for bacteriostasis: A (A: <8 μg/mL)
[4]
  The minimum concentration of test compounds combined with ceftazidime (8 μg/mL) for bacteriostasis: A (A: <8 μg/mL)
[5]
  The minimum concentration of test compounds combined with ceftazidime (8 μg/mL) for bacteriostasis: C (C: 16-128 μg/mL)
[6]
  The minimum concentration of test compounds combined with ceftazidime (8 μg/mL) for bacteriostasis: A (A: <8 μg/mL)
[7]
  The minimum concentration of test compounds combined with ceftazidime (8 μg/mL) for bacteriostasis: A (A: <8 μg/mL)
[8]
  The minimum concentration of test compounds combined with ceftazidime (8 μg/mL) for bacteriostasis: A (A: <8 μg/mL)
[9]
  The minimum concentration of test compounds combined with imipenem (4 μg/mL) for bacteriostasis: A (A: <8 μg/mL)
[10]
  The minimum concentration of test compounds combined with imipenem (4 μg/mL) for bacteriostasis: A (A: <8 μg/mL)
[11]
  The minimum concentration of test compounds combined with imipenem (4 μg/mL) for bacteriostasis: A (A: <8 μg/mL)
[12]
  The minimum concentration of test compounds combined with imipenem (4 μg/mL) for bacteriostasis: A (A: <8 μg/mL)
[13]
  The minimum concentration of test compounds combined with imipenem (4 μg/mL) for bacteriostasis: C (C: 16-128 μg/mL)
[14]
  The minimum concentration of test compounds combined with imipenem (4 μg/mL) for bacteriostasis: A (A: <8 μg/mL)
[15]
  The minimum concentration of test compounds combined with imipenem (4 μg/mL) for bacteriostasis: A (A: <8 μg/mL)
[16]
  The minimum concentration of test compounds combined with imipenem (4 μg/mL) for bacteriostasis: A (A: <8 μg/mL)
